Reference: PubChem BioAssay (NCI)
“And” between values parts separate entries of the source, which are not always exact repeats. Equal values may be shown once.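 Values below derive from 48-hour exposures of cells grown in 96-well plates, with endpoints linearly interpolated between the two concentrations bracketing the appropriate inhibition level. Abbreviation: GI50, concentration required for 50% inhibition of growth. Definition used: TGI = concentration required for complete inhibition of growth.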

What was measured:
Experiment in all cases: NCI anticancer screen, dose series, 48 h
A498 renal = system: A498 renal
K-562 leukemia = system: K-562 leukemia
MCF7 breast = system: MCF7 breast
MDA-MB-435 = system: MDA-MB-435
MOLT-4 leukemia = system: MOLT-4 leukemia
NCI-H23 lung = system: NCI-H23 lung
NCI-H460 lung = system: NCI-H460 lung
OVCAR-5 ovarian = system: OVCAR-5 ovarian
PC-3 prostate = system: PC-3 prostate
SNB-19 CNS = system: SNB-19 CNS
SNB-75 CNS = system: SNB-75 CNS
U251 CNS = system: U251 CNS
UO-31 renal = system: UO-31 renal

| SMILES | TGI (A498 renal) [nM] | TGI (K-562 leukemia) [nM] | TGI (MCF7 breast) [nM] | TGI (MDA-MB-435) [nM] | TGI (MOLT-4 leukemia) | TGI (NCI-H23 lung) | GI50 (NCI-H460 lung) [nM] | TGI (NCI-H460 lung) | TGI (OVCAR-5 ovarian) [nM] | TGI (PC-3 prostate) | TGI (SNB-19 CNS) [nM] | TGI (SNB-75 CNS) [nM] | TGI (U251 CNS) | GI50 (UO-31 renal) [nM] | TGI (UO-31 renal) [nM] |
| --- | --- | --- | --- | --- | --- | --- | --- | --- | --- | --- | --- | --- | --- | --- | --- |
| O=C(N[C@@H](Cc1ccccc1)B(O)O)[C@H](Cc1cccc2ccccc12)NC(=O)N1CCOCC1 | 212 | 85.2 | 352 | 1.03 | 3.66 nM and 10.7 nM | 8.99 nM and 10.1 nM | 17.2 | 106 nM and 57.9 nM | 15.5 | 106 nM and 134 nM | 671 | 55.8 | 132 nM and 174 nM | 123 | 482 |
| COc1ccc(NC(=S)Nc2c(C)n(C)n(-c3ccccc3)c2=O)cc1 | > 100000 | > 100000 | > 100000 | > 100000 | > 100000 nM | > 100000 nM | – | > 100000 nM | > 100000 | > 100000 nM | > 100000 | > 100000 | > 100000 nM | – | > 100000 |
| COc1ccc2c(c1)C(=O)[C@@](Nc1ccc(C=O)cc1)(OC)[C@@](OC)(c1ccc([N+](=O)[O-])cc1)O2 | > 10000 | > 10000 | > 10000 | > 10000 | > 10000 nM | > 10000 nM | – | > 10000 nM | > 10000 | > 10000 nM | > 10000 | > 10000 | > 10000 nM | – | > 10000 |
| O=P(O)(O)CC1OC(CO)C(O)C1O (centres undefined) | > 100000 | > 100000 | > 100000 | > 100000 | > 100000 nM | > 100000 nM | – | > 100000 nM | > 100000 | > 100000 nM | > 100000 | > 100000 | > 100000 nM | – | > 100000 |
